# Measurements reported in patent US8486965B2, “Pyrrolo[2,3-b]pyridine derivative and use thereof for treatment of cancer” (Takeda Pharmaceutical Company Limited, priority 2009, dated 2013).
# Tested on: Hedgehog signal transduction system (Smo)
# Experiment: Gli reporter luciferase assay in NIH-3T3/Gli reporter cells stimulated with mouse Shh-N end fragment
# Format: cell-based
# Conditions: NIH3T3; 1 μM compound; NIH-3T3/Gli reporter cells with mouse Shh-N end fragment culture supernatant, 48 hr; luciferase activity, control without compound as 100; read-out: inhibition rate (%) at 1 μM
# Summary of the method: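 NIH-3T3 cells stably carrying a luciferase reporter driven by 8× Gli-binding sites and chicken δ-crystalline promoter, plated at 1×10^4 cells/well and cultured overnight at 37° C in 10% FBS D-MEM. Compound added with recombinant mouse Shh-N fragment (aa 1–198, HEK293-expressed) to induce signaling; luciferase read-out.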
row,Structure (SMILES),inhibition at 1 µM
1,"CCc1nc2c(cc1NC(=O)c1ccccc1)c(OC(C)C)c(C(=O)NC1CCN(C(=O)CO)CC1)n2C [Example 46, 6-ethyl-N-[1-(hydroxyacetyl)piperidin-4-yl]-1-methyl-3-(1-methylethoxy)-5-[(phenylcarbonyl)amino]-1H-pyrrolo[2,3-b]pyridine-2-carboxamide]",98%
2,"CCc1cc2c(cc1NC(=O)c1ccccc1)c(OC(C)C)c(C(=O)NC1CCN(C(=O)CO)CC1)n2C [Example 71, 6-ethyl-N-[1-(hydroxyacetyl)piperidin-4-yl]-1-methyl-3-(1-methylethoxy)-5-[(phenylcarbonyl)amino]-1H-indole-2-carboxamide]",97%
3,"CCc1nc2c(cc1NC(=O)c1ccc(F)cc1)c(OCC(F)(F)F)c(C(=O)NC1CCN(C(=O)CO)CC1)n2C [Example 24, 6-ethyl-5-{[(4-fluorophenyl)carbonyl]amino}-N-[1-(hydroxyacetyl)piperidin-4-yl]-1-methyl-3-(2,2,2-trifluoroethoxy)-1H-pyrrolo[2,3-b]pyridine-2-carboxamide]",90%
4,"Cc1cc2c(cc1NC(=O)c1ccccc1)c(OCC(F)(F)F)c(C(=O)NC1CCN(C(=O)CO)CC1)n2C [Example 67, N-[1-(hydroxyacetyl)piperidin-4-yl]-1,6-dimethyl-5-[(phenylcarbonyl)amino]-3-(2,2,2-trifluoroethoxy)-1H-indole-2-carboxamide]",97%
5,"CCc1cc2sc(C(=O)NC3CCN(C(=O)CO)CC3)c(OCC(F)(F)F)c2cc1NC(=O)c1ccccc1 [Example 149, 6-ethyl-N-[1-(hydroxyacetyl)piperidin-4-yl]-5-[(phenylcarbonyl)amino]-3-(2,2,2-trifluoroethoxy)-1-benzothiophene-2-carboxamide]",85%

# Tested on: mouse medulloblastoma
# Experiment: In vivo anti-tumor test, mouse medulloblastoma allogeneic transplantation model
# Conditions: 1 mg/kg, orally once a day for 2 weeks; subcutaneous medulloblastoma in nude mouse; at the end of the test; p < 0.025 (Dunnett's test)
# Method: According to the description in Sasaki, K. et al., (2006) Cancer Res. 66: 4215-4222, an anti-tumor effect of a compound was evaluated using a mouse medulloblastoma allogeneic transplantation model. To be precise, Patched 1 gene mutant mouse (lineage name: Ptch1tm1Mps/J) was purchased from The Jackson Laboratory and p53 gene mutant mouse (lineage name: P53N4-M, Nomenclature: B6.129-Trp53tm/BrdN4) was purchased from Taconic, and a mouse of Patched 1(+/−), p53(−/−) phenotype was prepared by mating. […]
# An anti-tumor test was performed using a tumor passaged by subcutaneous transplantation. […] The tumor diameter after transplantation was measured and, when the tumor size reached 150-250 mm^3, the anti-tumor test was started using 5 mice per group.
# The test compound was prepared to achieve a dose of 1 mg/kg with a 0.5% methylcellulose (Shin-Etsu Chemical Co., Ltd., Cat. No. SM-100) suspension, and orally administered once a day for 2 weeks. The tumor size was calculated based on the longer diameter and shorter diameter of the tumor measured with an electron vernier caliper. After the start of the test, the tumor size was measured every 2 or 3 days and the growth rate of the tumor size was calculated. […]
row,Structure (SMILES),T/C (%) (growth rate of the tumor size)
1,"CCc1nc2c(cc1NC(=O)c1ccccc1)c(OC(C)C)c(C(=O)NC1CCN(C(=O)CO)CC1)n2C [Example 46, 6-ethyl-N-[1-(hydroxyacetyl)piperidin-4-yl]-1-methyl-3-(1-methylethoxy)-5-[(phenylcarbonyl)amino]-1H-pyrrolo[2,3-b]pyridine-2-carboxamide]",51%
